Reference: PubChem BioAssay (NCI)
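1) Cells in 96-well plates. 2) Compound, 48 h, 5 concentrations. 3) Linear interpolation between surrounding doses. 4) Unreached endpoint = highest concentration. GI50 = concentration required for 50% inhibition of growth. TGI marks complete inhibition of growth.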

How the values were obtained:
Test in all cases: DTP human tumour cell line panel, 48 h; in the data active = GI50 below about 0.43 µM; inactive = the rest
SR leukemia = test system: SR leukemia
SF-295 CNS = test system: SF-295 CNS
PC-3 prostate = test system: PC-3 prostate
TK-10 renal = test system: TK-10 renal
HT29 colon = test system: HT29 colon
HS 578T breast = test system: HS 578T breast
COLO 205 colon = test system: COLO 205 colon
U251 CNS = test system: U251 CNS
SK-MEL-2 melanoma = test system: SK-MEL-2 melanoma
SK-OV-3 ovarian = test system: SK-OV-3 ovarian
MALME-3M melanoma = test system: MALME-3M melanoma
OVCAR-5 ovarian = test system: OVCAR-5 ovarian
NCI-H522 lung = test system: NCI-H522 lung
HL-60(TB) leukemia = test system: HL-60(TB) leukemia
MOLT-4 leukemia = test system: MOLT-4 leukemia
IGROV1 ovarian = test system: IGROV1 ovarian
K-562 leukemia = test system: K-562 leukemia
UACC-62 melanoma = test system: UACC-62 melanoma
BT-549 breast = test system: BT-549 breast
SN12C renal = test system: SN12C renal
HOP-92 NSCLC = test system: HOP-92 NSCLC
SNB-75 CNS = test system: SNB-75 CNS
SK-MEL-28 melanoma = test system: SK-MEL-28 melanoma
NCI-H226 lung = test system: NCI-H226 lung
MCF7 breast = test system: MCF7 breast
OVCAR-4 ovarian = test system: OVCAR-4 ovarian
ACHN renal = test system: ACHN renal
RXF 393 renal = test system: RXF 393 renal
HCT-116 colon = test system: HCT-116 colon
HCT-15 colon = test system: HCT-15 colon
HCC-2998 colon = test system: HCC-2998 colon
A549 NSCLC = test system: A549 NSCLC
UACC-257 melanoma = test system: UACC-257 melanoma
OVCAR-8 ovarian = test system: OVCAR-8 ovarian
DU-145 prostate = test system: DU-145 prostate
KM12 colon = test system: KM12 colon
NCI-H460 lung = test system: NCI-H460 lung
T-47D breast = test system: T-47D breast
A498 renal = test system: A498 renal
NCI-H23 lung = test system: NCI-H23 lung
MDA-MB-435 = test system: MDA-MB-435
CAKI-1 renal = test system: CAKI-1 renal
UO-31 renal = test system: UO-31 renal
SF-268 CNS = test system: SF-268 CNS
786-0 renal = test system: 786-0 renal
HOP-62 NSCLC = test system: HOP-62 NSCLC
RPMI-8226 leukemia = test system: RPMI-8226 leukemia
SF-539 CNS = test system: SF-539 CNS
SW-620 colon = test system: SW-620 colon
CCRF-CEM leukemia = test system: CCRF-CEM leukemia
SK-MEL-5 melanoma = test system: SK-MEL-5 melanoma
NCI/ADR-RES ovarian = test system: NCI/ADR-RES ovarian
OVCAR-3 ovarian = test system: OVCAR-3 ovarian
LOX IMVI melanoma = test system: LOX IMVI melanoma
MDA-MB-231 breast = test system: MDA-MB-231 breast
SNB-19 CNS = test system: SNB-19 CNS
M14 melanoma = test system: M14 melanoma

CC[C@H](C)C(=O)O[C@H]1C[C@H](O)C=C2C=C[C@H](C)[C@H](CC[C@@H](O)C[C@@H](O)CC(=O)O)[C@H]21
> 100 µM: TGI (SR leukemia) | TGI (SF-295 CNS) | TGI (PC-3 prostate) | TGI (TK-10 renal) | TGI (HT29 colon) | TGI (HS 578T breast) | TGI (COLO 205 colon) | TGI (U251 CNS) | TGI (SK-MEL-2 melanoma) | TGI (SK-OV-3 ovarian) | TGI (MALME-3M melanoma) | TGI (OVCAR-5 ovarian) | TGI (NCI-H522 lung) | TGI (HL-60(TB) leukemia) | TGI (MOLT-4 leukemia) | TGI (IGROV1 ovarian) | TGI (K-562 leukemia) | TGI (UACC-62 melanoma) | TGI (BT-549 breast) | TGI (SN12C renal) | TGI (HOP-92 NSCLC) | TGI (SNB-75 CNS) | TGI (SK-MEL-28 melanoma) | TGI (NCI-H226 lung) | TGI (MCF7 breast) | TGI (OVCAR-4 ovarian) | TGI (ACHN renal) | TGI (RXF 393 renal) | TGI (HCT-116 colon) | TGI (HCT-15 colon) | TGI (HCC-2998 colon) | TGI (A549 NSCLC) | TGI (UACC-257 melanoma) | TGI (OVCAR-8 ovarian) | TGI (DU-145 prostate) | TGI (KM12 colon) | TGI (NCI-H460 lung) | TGI (T-47D breast) | TGI (A498 renal) | TGI (NCI-H23 lung) | TGI (MDA-MB-435) | TGI (CAKI-1 renal) | TGI (UO-31 renal) | TGI (SF-268 CNS) | TGI (786-0 renal) | TGI (HOP-62 NSCLC) | TGI (RPMI-8226 leukemia) | TGI (SF-539 CNS) | TGI (SW-620 colon) | TGI (CCRF-CEM leukemia) | TGI (SK-MEL-5 melanoma) | TGI (NCI/ADR-RES ovarian) | TGI (OVCAR-3 ovarian) | TGI (LOX IMVI melanoma) | TGI (MDA-MB-231 breast) | TGI (SNB-19 CNS) | TGI (M14 melanoma)
inactive: GI50 (SR leukemia) > 100 µM | GI50 (SF-295 CNS) > 100 µM | GI50 (PC-3 prostate) > 100 µM | GI50 (TK-10 renal) > 100 µM | GI50 (HT29 colon) > 100 µM | GI50 (HS 578T breast) > 100 µM | GI50 (COLO 205 colon) > 100 µM | GI50 (U251 CNS) > 100 µM | GI50 (SK-MEL-2 melanoma) > 100 µM | GI50 (SK-OV-3 ovarian) > 100 µM | GI50 (MALME-3M melanoma) > 100 µM | GI50 (OVCAR-5 ovarian) > 100 µM | GI50 (NCI-H522 lung) 63 µM | GI50 (HL-60(TB) leukemia) > 100 µM | GI50 (MOLT-4 leukemia) > 100 µM | GI50 (IGROV1 ovarian) > 100 µM | GI50 (K-562 leukemia) > 100 µM | GI50 (UACC-62 melanoma) > 100 µM | GI50 (BT-549 breast) > 100 µM | GI50 (SN12C renal) > 100 µM | GI50 (HOP-92 NSCLC) 23 µM | GI50 (SNB-75 CNS) > 100 µM | GI50 (SK-MEL-28 melanoma) > 100 µM | GI50 (NCI-H226 lung) > 100 µM | GI50 (MCF7 breast) > 100 µM | GI50 (OVCAR-4 ovarian) > 100 µM | GI50 (ACHN renal) > 100 µM | GI50 (RXF 393 renal) > 100 µM | GI50 (HCT-116 colon) > 100 µM | GI50 (HCT-15 colon) > 100 µM | GI50 (HCC-2998 colon) > 100 µM | GI50 (A549 NSCLC) > 100 µM | GI50 (UACC-257 melanoma) > 100 µM | GI50 (OVCAR-8 ovarian) > 100 µM | GI50 (DU-145 prostate) > 100 µM | GI50 (KM12 colon) > 100 µM | GI50 (NCI-H460 lung) > 100 µM | GI50 (T-47D breast) > 100 µM | GI50 (A498 renal) 11.6 µM | GI50 (NCI-H23 lung) > 100 µM | GI50 (MDA-MB-435) > 100 µM | GI50 (CAKI-1 renal) > 100 µM | GI50 (UO-31 renal) > 100 µM | GI50 (SF-268 CNS) > 100 µM | GI50 (786-0 renal) > 100 µM | GI50 (HOP-62 NSCLC) > 100 µM | GI50 (RPMI-8226 leukemia) > 100 µM | GI50 (SF-539 CNS) > 100 µM | GI50 (SW-620 colon) > 100 µM | GI50 (CCRF-CEM leukemia) > 100 µM | GI50 (SK-MEL-5 melanoma) > 100 µM | GI50 (NCI/ADR-RES ovarian) > 100 µM | GI50 (OVCAR-3 ovarian) > 100 µM | GI50 (LOX IMVI melanoma) > 100 µM | GI50 (MDA-MB-231 breast) > 100 µM | GI50 (SNB-19 CNS) > 100 µM | GI50 (M14 melanoma) > 100 µM
